Experiments:
[1] = test system: patient with intractable post-herpetic trigeminal neuralgia; assay: Ketamine infusion with clonidine and MgSO4 in a patient with post-herpetic trigeminal neuralgia; assay type: in vivo, human
Description: A person had suffered for about 1.5 years from intractable post-herpetic trigeminal neuralgia (commonly known as shingles).

[2] = test system: patients with CRPS-1 (RSD); assay: Sustained ketamine infusion (with clonidine/magnesium) in patients with CRPS-1 (RSD) chronic neuropathic pain
Description: One of the coinventors herein (Correll, a physician) was involved in those tests, in Australia, using ketamine “mono-therapy” (i.e., without also administering a safener drug, such as clonidine).
In response, the anesthesiologist began to administer clonidine, a standard and conventional treatment for controlling high blood pressure. […] The anesthesiologist then began researching the scientific, medical, and patent literature on the subject, and soon discovered prior work done by the third inventor (Olney, a neurology researcher who specializes in animal models) on the subject of safener drugs that can reduce or prevent the toxic side effects of NMDA blocker drugs such as ketamine.
A person had suffered for roughly 9 years from intractable chronic pain, diagnosed as CRPS-1 and/or RSD, in their right leg and foot. This pain apparently was related to circulatory problems in their right leg. […] The contents of that article are incorporated herein by reference.
They were treated with […] of MgSO4 (infused in 5% dextrose in water, or D5W) and 0.1 mg clonidine (oral tablet) prior to ketamine. […] A second magnesium infusion was performed at 24 hr.

depressed patients = settings: single one-time dosage; cited from earlier work
[3] = test system: patients with compulsive eating disorders (mainly anorexic); settings: 2 to 9 infusions, 10-hour infusion period, 20 mg per hour; cited from earlier work

## O=S(=O)([O-])[O-].[Mg+2] [MgSO4, magnesium sulfate]
[1]; Example 3, 2 g MgSO4 prior to and 2 g later in ketamine infusion
  effect of magnesium coadministered along with ketamine on pain: synergistic pain-reducing effect

## Clc1cccc(Cl)c1N=C1NCCN1 [clonidine]
[2]; patient in ketamine mono-therapy test, clonidine given for rising blood pressure
  effect of adding clonidine to ketamine infusion on pain: substantial improvement in their pain reduction

## CNC1(c2ccccc2Cl)CCCCC1=O (stereo not drawn) [ketamine]
Depressed patients
  effect on depression: transient relief of depression
[2]; Example 1, person, 9-year CRPS-1/RSD in right leg and foot
  time patient remained pain-free after ketamine treatment: roughly 18 months
[2]; Example 2, about 12 months after treatment
  pain status at last contact: still pain-free
[2]; Example 2, ketamine infusion increased to 20 mg/hr
  time until CNS side effects (slurring of speech) resolved: ≤ 24 h
[2]; Example 2, person, ketamine 10-20 mg/hr i.v. with clonidine 0.1 mg every 12 hours and MgSO4
  time of ketamine infusion until essentially complete relief from pain: 2 to 3 days
[1]; Example 3, about 12 months after treatment, 48 hours ketamine infusion, clonidine started during first day, 2 x 2 g MgSO4
  pain status at last contact: still largely abated
[3]
  patients with prolonged remission of compulsive thoughts about food, diet, and weight: Nine of the 15

— patent publication US20050222270A1, “Prolonged administration of NMDA antagonist drug and safener drug to create improved stable neural homeostasis” (priority 2004, published 2005)
